`O=C(OCC1OC(n2cnc3c(NOCc4ccccc4)nc(Cl)nc32)C(OC(=O)c2ccccc2)C1OC(=O)c1ccccc1)c1ccccc1` (stereo not drawn) gave a melting point of 115 to 119 °C.
With `Nc1nc(Cl)nc2c1ncn2C1C=CCCC1` (stereo not drawn) the melting point was 195 to 197 °C.
`CCCC(=O)c1cnc2c(O)cccc2c1Nc1ccc(F)cc1C` showed a melting point of 121 to 122 °C.
For `COc1ccccc1C(=O)N1CCCC(=O)c2ccc(Cl)cc2CCC1=O`, the melting point was 179 °C.
Work on `COc1ncc(C2Nc3ccccc3C(=O)N2c2cccc(C(F)(F)F)c2)cc1Br` (stereo not drawn) yielded a melting point of 192 to 193 °C.
`Cc1cc(=O)c(-c2ccc(Cl)c(Cl)c2)c(-c2ccc(S(N)(=O)=O)cc2)o1` showed a melting point of 128 °C.
For `COC(=O)Nc1ccc(CC(=O)Nc2cccc3c2C(=O)c2c-3n[nH]c2-c2ccc(OC)cc2)cc1`, the melting point was 257 °C.
Work on `CN(C)C1=NC(=O)C(Cc2cccc(-c3ccc(O)c(C4(C)CCCCC4)c3)c2)S1` (stereo not drawn) yielded a melting point of 108 to 110 °C.
With `O=C1CCC(c2ccc(Cl)c(Cl)c2)c2ccccc2N1` (stereo not drawn) the melting point was 191 to 194 °C.
With `CC(C(=O)c1ccc(O)cc1)N1CCC(O)(c2ccccc2)CC1` (stereo not drawn) the melting point was 95 to 97 °C.
Work on `O=C1c2ccccc2OCC1SC(=O)C(F)(F)F` (stereo not drawn) yielded a melting point of 75 to 79 °C.
Work on `O=C1OC(CCl)CN1c1ccc(S(=O)(=O)C(F)(F)F)cc1` (stereo not drawn) yielded a melting point of 121 to 123 °C.
In the case of `CCCc1nc(N)c(C(=O)OCC)[nH]1`, the melting point is reported as 111 to 114 °C.
Compound `c1ccc(C(c2ccccc2)(c2ccns2)n2ccnc2)cc1` has a melting point of 164 to 167 °C.
`Cc1cccc(-c2[nH]c(C(C)C)nc2-c2cccc(-c3ccc(C)[nH]3)c2)n1` gave a melting point of 128 to 130 °C.
For `Cc1ccnc(-n2cc(C#N)ccc2=O)c1`, the melting point was 166 to 168 °C.
Work on `C(=Cc1ccc(-c2ccc(OCCCN3CCCCC3)cc2)cc1)CN1CCCCC1` yielded a melting point of 100 to 105 °C.
In the case of `CCCCCCCCCCCCCC(=O)Nc1ccc(C2=NNC(=O)NC2C)cc1` (stereo not drawn), the melting point is reported as 206 to 209 °C.
Compound `CN(C)CCS(=O)(=O)NC(=O)CCn1c2ccc(O)cc2c2c3c(c(-c4ccccc4Cl)cc21)C(=O)NC3=O` has a melting point of 229 to 233 °C.
`CCCCc1nnc(SCc2ccc(Cl)cc2)n1Cc1ccc(-c2ccccc2-c2nnn[nH]2)cc1` showed a melting point of 92 to 93 °C.
`Cc1nc2c3c(ccn2c1C)[C@@H](O)[C@@](C)(O)[C@@H](c1ccccc1)N3` gave a melting point of 180 °C.
Compound `CN(C)C1(c2cccs2)CCC(=O)CC1` has a melting point of 102 to 103 °C.
In the case of `CSc1nn2c(N3CCNCC3)cc(C)nc2c1S(=O)(=O)c1ccccc1`, the melting point is reported as 137 to 139 °C.
For `O=C(O)CCc1cn(Cc2ccc(OCc3noc(-c4ccccc4)n3)cc2)nc1-c1ccccc1`, the melting point was 166 to 167 °C.
For `CCC(=O)C1=C(O)CC(c2ccc3c(c2)CCCC3)CC1=O` (stereo not drawn), the melting point was 87 °C.
Compound `Cc1cc2c(cc1C)C(N)CC(C)(C)O2` (stereo not drawn) has a melting point of over 270 °C.
Compound `COC1CCCC(C2NC(=O)C2C(C)O[Si](C)(C)C(C)(C)C)C1O` (stereo not drawn) has a melting point of 146 to 148 °C.
With `O=c1c(Cl)c(SCc2ccc(Cl)cc2)cnn1-c1ccccc1` the melting point was 154 to 155 °C.
With `O=C(CC(NC(=O)c1ccccc1)c1ccccc1)Nc1n[nH]c(=S)s1` (stereo not drawn) the melting point was 266 to 267 °C.
Compound `COCC(=O)Nc1cc(NC(=O)COC)cc(C(=O)OC)c1` has a melting point of 140 to 141 °C.
`CC(C)(C)C(CO)NC(=O)C(CC(=O)O)n1ccc(-c2ccc(-c3ccc(C(N)=O)cc3)cc2)c1` (stereo not drawn) gave a melting point of 192 to 194 °C.
With `CC12CCC3c4ccc(O)cc4C(=O)C(Sc4ccc(Br)cc4)C3C1CCC2O` (stereo not drawn) the melting point was 190 to 194 °C.
With `Cc1c(-c2ccc(OCc3ccccc3)cc2)n(Cc2ccc(OCCBr)cc2)c2ccc(OCc3ccccc3)cc12` the melting point was 131 to 134 °C.
For `CCOC(=O)c1cc(-c2ccc(Cl)cc2)c(Cl)nc1NC=O`, the melting point was 184 to 187 °C.
With `O=C(c1ccsc1)c1cccc(-c2c(O)c3ccc(Cl)cc3[nH]c2=O)c1` the melting point was 287 to 290 °C.
Work on `CCC1CN(O)CCN1O` (stereo not drawn) yielded a melting point of 137 °C.
In the case of `BrCc1ccc2ocnc2c1`, the melting point is reported as 90 to 93 °C.
`O=c1[nH]c2cc(Cl)ccc2c(O)c1-c1cccc(I)c1` showed a melting point of over 350 °C.

Reference: a melting point compilation (Tetko et al.; mined from patent text by program, amines drawn as free bases though some values may be those of a salt)
